pIC50: −log10 of the molar value.
Molecular target: human PDE4D catalytic domain (Homo sapiens (Human), UniProt Q08499)
Assay: PDE4 Assay (TR-FRET, FAM-cAMP cleavage)
Assay type: biochemical
Details: Table 16, Examples 277-296; read-out: PDE4 IC50 range
Procedure, shortened: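 PDE4D catalytic domain (S380-L740) incubated briefly with unlabelled cAMP plus FAM-cAMP and titrated compound. Reaction stopped with binding buffer holding metal-ion nanoparticles that bind AMP phospho groups and Tb donor, and AMP formation read by TR-FRET. IC50 versus controls, reported as ranges (nM).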

human PDE4D catalytic domain, sequence (Q08499 380-740): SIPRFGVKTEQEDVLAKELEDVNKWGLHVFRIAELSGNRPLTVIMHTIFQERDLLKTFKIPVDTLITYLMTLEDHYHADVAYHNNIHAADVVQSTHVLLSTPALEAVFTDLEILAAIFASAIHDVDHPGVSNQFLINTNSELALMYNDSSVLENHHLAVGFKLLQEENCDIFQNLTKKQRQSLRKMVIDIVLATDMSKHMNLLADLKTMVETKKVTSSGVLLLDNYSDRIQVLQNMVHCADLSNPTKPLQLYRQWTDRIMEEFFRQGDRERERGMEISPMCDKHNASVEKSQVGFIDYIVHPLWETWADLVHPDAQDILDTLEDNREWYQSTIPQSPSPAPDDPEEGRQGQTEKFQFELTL

Compound | pIC50
CCn1nc(C[C@@H](C)COC(=O)c2coc(C)n2)c2c1C(=O)NCC1(CCOCC1)C2 [Example 281, [(2R)-3-(1-ethyl-8-oxo-spiro[6,7-dihydro-4H-pyrazolo[3,4-c]azepine-5,4′-tetrahydropyran]-3-yl)-2-methyl-propyl] 2-methyloxazole-4-carboxylate] | > 7.00
CCn1nc(C[C@@H](C)COC(=O)c2cocn2)c2c1C(=O)NCC1(CCOCC1)C2 [Example 277, [(2R)-3-(1-ethyl-8-oxo-spiro[6,7-dihydro-4H-pyrazolo[3,4-c]azepine-5,4′-tetrahydropyran]-3-yl)-2-methyl-propyl] oxazole-4-carboxylate] | > 7.00

Same assay, conditions: Table 17, Examples 297-316; read-out: PDE4 IC50 range

Compound | pIC50
CCn1nc(CC(C)(C)COC(=O)c2csc(C)n2)c2c1C(=O)NCC1(CCOCC1)C2 [Example 310, [3-(1-ethyl-8-oxo-spiro[6,7-dihydro-4H-pyrazolo[3,4-c]azepine-5,4′-tetrahydro-pyran]-3-yl)-2,2-dimethyl-propyl] 2-methylthiazole-4-carboxylate] | > 7.00
CCn1nc(CC(C)(C)COC(=O)C2CCN(C(=O)N(C)C)CC2)c2c1C(=O)NCC1(CCOCC1)C2 [Example 316, [3-(1-ethyl-8-oxo-spiro[6,7-dihydro-4H-pyrazolo[3,4-c]azepine-5,4′-tetrahydro-pyran]-3-yl)-2,2-dimethyl-propyl] 1-(dimethylcarbamoyl)-piperidine-4-carboxylate] | > 7.00

Same assay, conditions: human PDE4D catalytic domain (UniProt Q08499 [S380-L740]); 50% inhibition of substrate cleavage; read-out: PDE4 IC50 range

Compound | pIC50
CCn1nc(C[C@@H](C)COC(=O)c2cccc(C(=O)N3CCCCC3)c2)c2c1C(=O)NCC1(CCOCC1)C2 [Example 182, [(2R)-3-(1-ethyl-8-oxo-spiro[6,7-dihydro-4H-pyrazolo[3,4-c]azepine-5,4′-tetrahydropyran]-3-yl)-2-methyl-propyl] 3-(piperidine-1-carbonyl)benzoate] | > 7.00
CCn1nc(CC(C)(C)COC(=O)c2ccc(C(=O)NC)cc2)c2c1C(=O)NCC1(CCOCC1)C2 [Example 219, [3-(1-ethyl-8-oxo-spiro[6,7-dihydro-4H-pyrazolo[3,4-c]azepine-5,4′-tetrahydropyran]-3-yl)-2,2-dimethyl-propyl] 4-(methylcarbamoyl)benzoate] | > 7.00
CCn1nc(CC(C)(C)COC(=O)[C@H]2CC[C@H](O)CC2)c2c1C(=O)NCC1(CCOCC1)C2 [Example 194, [3-(1-ethyl-8-oxo-spiro[6,7-dihydro-4H-pyrazolo[3,4-c]azepine-5,4′-tetrahydropyran]-3-yl)-2,2-dimethyl-propyl] 4-hydroxycyclohexane-carboxylate] | > 7.00
CCn1nc(CCCOC(=O)c2ccc(C#N)cc2)c2c1C(=O)NCC1(CCOCC1)C2 [Example 12, 3-(1-ethyl-8-oxo-spiro[6,7-dihydro-4H-pyrazolo[3,4-c]azepine-5,4′-tetrahydropyran]-3-yl) propyl 4-cyanobenzoate] | > 7.00
CCn1nc(CCCOC(=O)c2cccc(C(C)=O)c2)c2c1C(=O)NCC1(CCOCC1)C2 [Example 28, 3-(1-ethyl-8-oxo-spiro[6,7-dihydro-4H-pyrazolo[3,4-c]azepine-5,4′-tetrahydropyran]-3-yl)propyl 3-acetylbenzoate] | > 7.00
CCn1nc(C[C@@H](C)COC(=O)c2cccc(C(C)=O)c2)c2c1C(=O)NCC1(CCOCC1)C2 [Example 154, [(2R)-3-(1-ethyl-8-oxo-spiro[6,7-dihydro-4H-pyrazolo[3,4-c]azepine-5,4′-tetrahydropyran]-3-yl)-2-methyl-propyl] 3-acetylbenzoate] | > 7.00
CCn1nc(C[C@@H](C)COC(=O)c2ccc(S(=O)(=O)C3CCCC3)cc2)c2c1C(=O)NCC1(CCOCC1)C2 [Example 162, [(2R)-3-(1-ethyl-8-oxo-spiro[6,7-dihydro-4H-pyrazolo[3,4-c]azepine-5,4′-tetrahydropyran]-3-yl)-2-methyl-propyl] 4-cyclopentylsulfonylbenzoate] | > 7.00
CCn1nc(CC(C)(C)COC(=O)c2ccc(S(=O)(=O)N3CCOCC3)cc2)c2c1C(=O)NCC1(CCOCC1)C2 [Example 213, [3-(1-ethyl-8-oxo-spiro[6,7-dihydro-4H-pyrazolo[3,4-c]azepine-5,4′-tetrahydropyran]-3-yl)-2,2-dimethyl-propyl] 4-morpholinosulfonylbenzoate] | > 7.00
CCn1nc(CCOC(=O)C2CCCC2)c2c1C(=O)NCC1(CCOCC1)C2 [Example 134, 2-(1-ethyl-8-oxo-spiro-[6,7-dihydro-4H-pyrazolo-[3,4-c]azepine-5,4′-tetra-hydropyran]-3-yl)ethyl cyclopentanecarboxylate] | > 7.00
CCn1nc(CCCOC(=O)c2ccc(C(F)(F)F)cc2C(F)(F)F)c2c1C(=O)NCC1(CCOCC1)C2 [Example 97, 3-(1-ethyl-8-oxo-spiro[6,7-dihydro-4H-pyrazolo[3,4-c]azepine-5,4′-tetrahydro-pyran]-3-yl)propyl 2,4-bis(trifluoromethyl)benzoate] | > 7.00
CCn1nc(CCCOC(=O)c2cccc(OC)c2Cl)c2c1C(=O)NCC1(CCOCC1)C2 [Example 57, 3-(1-ethyl-8-oxo-spiro[6,7-dihydro-4H-pyrazolo[3,4-c]azepine-5,4′-tetrahydropyran]-3-yl)propyl 2-chloro-3-methoxy-benzoate] | > 7.00
CCn1nc(CCCOC(=O)c2ccc(S(=O)(=O)N3CCCC3)cc2)c2c1C(=O)NCC1(CCOCC1)C2 [Example 96, 3-(1-ethyl-8-oxo-spiro[6,7-dihydro-4H-pyrazolo[3,4-c]azepine-5,4′-tetrahydro-pyran]-3-yl)propyl 4-pyrro-lidin-1-ylsulfonylbenzoate] | > 7.00
CCn1nc(CCCOC(=O)c2ccc(OC)c(F)c2)c2c1C(=O)NCC1(CCOCC1)C2 [Example 35, 3-(1-ethyl-8-oxo-spiro[6,7-dihydro-4H-pyrazolo[3,4-c]azepine-5,4′-tetrahydropyran]-3-yl)propyl 3-fluoro-4-methoxy-benzoate] | > 7.00
CCn1nc(CCCOC(=O)c2ccc(F)c(C#N)c2)c2c1C(=O)NCC1(CCOCC1)C2 [Example 30, 3-(1-ethyl-8-oxo-spiro[6,7-dihydro-4H-pyrazolo[3,4-c]azepine-5,4′-tetrahydropyran]-3-yl)propyl 3-cyano-4-fluoro-benzoate] | > 7.00
CCn1nc(CCCOC(=O)c2ccc(S(=O)(=O)N(C)C)cc2)c2c1C(=O)NCC1(CCOCC1)C2 [Example 2, 3-(1-Ethyl-8-oxo-spiro[6,7-dihydro-4H-pyrazolo[3,4-c]azepine-5,4′-tetrahydropyran]-3-yl)propyl 4-(dimethylsulfamoyl)benzoate] | > 7.00
CCn1nc(CCCOC(=O)c2csc(C)n2)c2c1C(=O)NCC1(CCOCC1)C2 [Example 254, 3-(1-ethyl-8-oxo-spiro[6,7-dihydro-4H-pyrazolo[3,4-c]azepine-5,4′-tetrahydropyran]-3-yl)propyl 2-methylthiazole-4-carboxylate] | > 7.00
CCn1nc(CCCOC(=O)c2cc(Cl)ccc2F)c2c1C(=O)NCC1(CCOCC1)C2 [Example 51, 3-(1-ethyl-8-oxo-spiro[6,7-dihydro-4H-pyrazolo[3,4-c]azepine-5,4′-tetrahydropyran]-3-yl)propyl 5-chloro-2-fluoro-benzoate] | > 7.00
CCn1nc(CCCOC(=O)c2ccc(C(F)(F)F)c(F)c2)c2c1C(=O)NCC1(CCOCC1)C2 [Example 75, 3-(1-ethyl-8-oxo-spiro[6,7-dihydro-4H-pyrazolo[3,4-c]azepine-5,4′-tetrahydro-pyran]-3-yl)propyl 3-fluoro-4-(trifluoromethyl)benzoate] | > 7.00
CCn1nc(C[C@@H](C)COC(=O)c2cccc(C(=O)N3CCCC3)c2)c2c1C(=O)NCC1(CCOCC1)C2 [Example 181, [(2R)-3-(1-ethyl-8-oxo-spiro[6,7-dihydro-4H-pyrazolo[3,4-c]azepine-5,4′-tetrahydropyran]-3-yl)-2-methyl-propyl] 3-(pyrrolidine-1-carbonyl)benzoate] | > 7.00
CCn1nc(CCCOC(=O)c2ccc(C(N)=O)cc2)c2c1C(=O)NCC1(CCOCC1)C2 [Example 104, 3-(1-ethyl-8-oxo-spiro[6,7-dihydro-4H-pyrazolo[3,4-c]azepine-5,4′-tetrahydropyran]-3-yl)propyl 4-carbamoylbenzoate] | > 7.00
CCn1nc(CCCOC(=O)c2ccc(C)c(C)c2)c2c1C(=O)NCC1(CCOCC1)C2 [Example 13, 3-(1-ethyl-8-oxo-spiro[6,7-dihydro-4H-pyrazolo[3,4-c]azepine-5,4′-tetrahydropyran]-3-yl) propyl 3,4-dimethylbenzoate] | > 7.00
CCn1nc(CC(C)(C)COC(=O)c2cccc(OC)c2)c2c1C(=O)NCC1(CCOCC1)C2 [Example 196, [3-(1-ethyl-8-oxo-spiro[6,7-dihydro-4H-pyrazolo[3,4-c]azepine-5,4′-tetrahydropyran]-3-yl)-2,2-dimethyl-propyl] 3-methoxybenzoate] | > 7.00
CCn1nc(CCCOC(=O)c2cccc(C(F)(F)F)c2C)c2c1C(=O)NCC1(CCOCC1)C2 [Example 68, 3-(1-ethyl-8-oxo-spiro[6,7-dihydro-4H-pyrazolo[3,4-c]azepine-5,4′-tetrahydro-pyran]-3-yl)propyl 2-methyl-3-(trifluoromethyl)benzoate] | > 7.00
CCn1nc(CCCOC(=O)c2cccc(C(F)(F)F)c2Cl)c2c1C(=O)NCC1(CCOCC1)C2 [Example 85, 3-(1-ethyl-8-oxo-spiro[6,7-dihydro-4H-pyrazolo[3,4-c]azepine-5,4′-tetrahydropyran]-3-yl)propyl 2-chloro-3-(trifluoromethyl)benzoate] | > 7.00
CCn1nc(CC(C)(C)COC(=O)c2ccc(S(=O)(=O)C(C)C)cc2)c2c1C(=O)NCC1(CCOCC1)C2 [Example 207, [3-(1-ethyl-8-oxo-spiro[6,7-dihydro-4H-pyrazolo[3,4-c]azepine-5,4′-tetrahydropyran]-3-yl)-2,2-dimethyl-propyl] 4-isopropylsulfonylbenzoate] | > 7.00

— US10793580B2, “Substituted pyrazoloazepin-8-ones and their use as phosphodiesterase inhibitors” (LEO Pharma A/S, priority 2016, dated 2020)
